Toxic doses and inconclusive results are not listed. Cut-off read from the data, not from the text of the source: active = T/C of 150% or more; inactive = T/C below 125%.
Test system: L1210 leukemia ip in BDF1 mice, survival T/C
Assay: NCI In Vivo Anticancer Drug Screen. Data for tumor model L1210 Leukemia (intraperitoneal) in B6D2F1 (BDF1) mice
Details: endpoint: mean survival time, higher = longer survival
In short: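 Value reflects the ratio of survival in compound-treated mice to survival in vehicle-treated controls, with both groups carrying the same transplanted tumor.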

[1] = dose: 100.0 mg/kg/injection, schedule: Q04DX003 (ip), vehicle: saline with Tween-80
[2] = dose: 200.0 mg/kg/injection, schedule: Q04DX003 (ip), vehicle: saline with Tween-80
[3] = dose: 400.0 mg/kg/injection, schedule: Q04DX003 (ip), vehicle: saline with Tween-80
[4] = dose: 100.0 mg/kg/injection, schedule: Q01DX009 (ip), vehicle: Klucel (hydroxypropylcellulose) (HPC)
[5] = dose: 200.0 mg/kg/injection, schedule: Q01DX009 (ip), vehicle: Klucel (hydroxypropylcellulose) (HPC)
[6] = dose: 400.0 mg/kg/injection, schedule: Q01DX009 (ip), vehicle: Klucel (hydroxypropylcellulose) (HPC)
[7] = dose: 100.0 mg/kg/injection, schedule: Q01DX009 (ip), vehicle: saline with Tween-80
[8] = dose: 200.0 mg/kg/injection, schedule: Q01DX009 (ip), vehicle: saline with Tween-80
[9] = dose: 400.0 mg/kg/injection, schedule: Q01DX009 (ip), vehicle: saline with Tween-80
[10] = dose: 12.5 mg/kg/injection, schedule: Q01DX009 (ip), vehicle: saline with Tween-80
[11] = dose: 50.0 mg/kg/injection, schedule: Q01DX009 (ip), vehicle: saline with Tween-80
[12] = dose: 100.0 mg/kg/injection, schedule: Q04DX003 (ip), vehicle: Klucel (hydroxypropylcellulose) (HPC)
[13] = dose: 200.0 mg/kg/injection, schedule: Q04DX003 (ip), vehicle: Klucel (hydroxypropylcellulose) (HPC)
[14] = dose: 400.0 mg/kg/injection, schedule: Q04DX003 (ip), vehicle: Klucel (hydroxypropylcellulose) (HPC)

Measured: T/C

CC(C)(Oc1cccc2ccccc12)C(=O)O
inactive: [1] 100 % of control | [2] 105 % of control | [3] 93 % of control

CN(C)CCN(C)CCN(C)CCN(C)C
inactive: dose: 100.0 mg/kg/injection, schedule: Q01DX009 (ip), vehicle: saline 95 % of control | dose: 200.0 mg/kg/injection, schedule: Q01DX009 (ip), vehicle: saline 100 % of control

C[N+]1(C)CCCC1
inactive: dose: 6.25 mg/kg/injection, schedule: Q01DX009 (ip), vehicle: saline 103 % of control | dose: 12.5 mg/kg/injection, schedule: Q01DX009 (ip), vehicle: saline 102 % of control | dose: 12.5 mg/kg/injection, schedule: Q04DX003 (ip), vehicle: saline 86 % of control | dose: 25.0 mg/kg/injection, schedule: Q01DX009 (ip), vehicle: saline 109 % of control | dose: 25.0 mg/kg/injection, schedule: Q04DX003 (ip), vehicle: saline 91 % of control | dose: 50.0 mg/kg/injection, schedule: Q04DX003 (ip), vehicle: saline 95 % of control

COc1ccccc1C(=O)N/N=C(\C)c1cccc2ccccc12
inactive: [4] 108 % of control | [5] 110 % of control | [6] 96 % of control

Cc1ccc(-n2c(O)c(C=N)c(=O)n(-c3ccc(C)cc3)c2=O)cc1
inactive: [7] 98 % of control | [8] 98 % of control | [9] 95 % of control

NCc1cn(C2OC(CO)C(O)C2O)c2ncnc(N)c12 (centres undefined)
inactive: dose: 1.56 mg/kg/injection, schedule: Q01DX009 (ip), vehicle: saline 90 % of control | dose: 3.12 mg/kg/injection, schedule: Q01DX005 (ip), vehicle: saline 92 % of control | dose: 3.12 mg/kg/injection, schedule: Q01DX009 (ip), vehicle: saline 107 % of control | dose: 6.25 mg/kg/injection, schedule: Q01DX005 (ip), vehicle: saline 108 % of control

COc1cc([N+](=O)[O-])ccc1NC(=O)Nc1cc(C)ccn1
inactive: [4] 100 % of control | [5] 93 % of control

CCOc1ccc(N=Nc2c(O)n(-c3ccccc3C)c(=S)n(-c3ccccc3OC)c2=O)cc1
inactive: dose: 75.0 mg/kg/injection, schedule: Q01DX003 (ip), vehicle: Klucel (hydroxypropylcellulose) (HPC) 91 % of control | dose: 150.0 mg/kg/injection, schedule: Q01DX003 (ip), vehicle: Klucel (hydroxypropylcellulose) (HPC) 94 % of control | dose: 300.0 mg/kg/injection, schedule: Q01DX003 (ip), vehicle: Klucel (hydroxypropylcellulose) (HPC) 91 % of control

Cc1ccc(Cl)c2ccccc12
inactive: [10] 106 % of control | dose: 25.0 mg/kg/injection, schedule: Q01DX009 (ip), vehicle: saline with Tween-80 104 % of control | [11] 106 % of control | [7] 93 % of control | [8] 90 % of control | [9] 101 % of control

CN(C)S(=O)(=O)c1ccc(NC(=O)OC(c2ccccc2)c2ccccc2)cc1
inactive: dose: 100.0 mg/kg/injection, schedule: Q01DX001 (ip), vehicle: saline 91 % of control | dose: 200.0 mg/kg/injection, schedule: Q01DX001 (ip), vehicle: saline 102 % of control | dose: 400.0 mg/kg/injection, schedule: Q01DX001 (ip), vehicle: saline 91 % of control

CCc1ccc(Nc2c([N+](=O)[O-])cc(C)cc2[N+](=O)[O-])cc1
inactive: [4] 97 % of control | [12] 103 % of control | [5] 105 % of control | [13] 108 % of control | [6] 113 % of control | [14] 102 % of control

BrCc1cccc2cccnc12
inactive: dose: 1.56 mg/kg/injection, schedule: Q01DX009 (ip), vehicle: saline with Tween-80 93 % of control | dose: 3.13 mg/kg/injection, schedule: Q01DX009 (ip), vehicle: saline with Tween-80 96 % of control | dose: 6.25 mg/kg/injection, schedule: Q01DX009 (ip), vehicle: saline with Tween-80 91 % of control | [10] 91 % of control

O=c1ccc2c([nH]1)CCCCC2
inactive: [12] 106 % of control | [13] 100 % of control | [14] 95 % of control

OC(c1ccccc1)C1C(c2ccccc2)N1C1CCCCC1 (centres undefined)
inactive: dose: 25.0 mg/kg/injection, schedule: Q01DX009 (ip), vehicle: Klucel (hydroxypropylcellulose) (HPC) 97 % of control | dose: 50.0 mg/kg/injection, schedule: Q01DX009 (ip), vehicle: Klucel (hydroxypropylcellulose) (HPC) 96 % of control | [12] 101 % of control | [13] 98 % of control

COC(=O)COc1ccc(Cl)cc1C(=O)O
inactive: [1] 94 % of control | [2] 92 % of control

CN(C)C(C)(C)CC(C)(C)C
inactive: dose: 25.0 mg/kg/injection, schedule: Q04DX003 (ip), vehicle: saline with Tween-80 103 % of control | dose: 50.0 mg/kg/injection, schedule: Q04DX003 (ip), vehicle: saline with Tween-80 106 % of control | [1] 103 % of control

CC(C)C/C=N/NC(=O)Cc1ccccc1
inactive: dose: 100.0 mg/kg/injection, schedule: Q01DX001 (ip), vehicle: other 101 % of control | dose: 200.0 mg/kg/injection, schedule: Q01DX001 (ip), vehicle: other 94 % of control | dose: 400.0 mg/kg/injection, schedule: Q01DX001 (ip), vehicle: other 101 % of control

O=C(OC1CCCCCCC1OC(=O)c1ccc([N+](=O)[O-])cc1)c1ccc([N+](=O)[O-])cc1 (centres undefined)
inactive: dose: 75.0 mg/kg/injection, schedule: Q01DX001 (ip), vehicle: carboxymethylcellulose (CMC) 93 % of control | dose: 150.0 mg/kg/injection, schedule: Q01DX001 (ip), vehicle: carboxymethylcellulose (CMC) 91 % of control | dose: 300.0 mg/kg/injection, schedule: Q01DX001 (ip), vehicle: carboxymethylcellulose (CMC) 91 % of control

O=C(CCc1ccccc1)c1ccccc1
inactive: dose: 100.0 mg/kg/injection, schedule: Q04DX002 (ip), vehicle: saline with Tween-80 97 % of control | dose: 200.0 mg/kg/injection, schedule: Q04DX002 (ip), vehicle: saline with Tween-80 97 % of control | dose: 400.0 mg/kg/injection, schedule: Q04DX002 (ip), vehicle: saline with Tween-80 90 % of control

C=CC[n+]1ccccc1C
inactive: [11] 91 % of control | [7] 91 % of control

C=CCOc1cc(C)ccc1C
inactive: dose: 100.0 mg/kg/injection, schedule: Q01DX001 (ip), vehicle: carboxymethylcellulose (CMC) 98 % of control | dose: 200.0 mg/kg/injection, schedule: Q01DX001 (ip), vehicle: carboxymethylcellulose (CMC) 95 % of control | dose: 400.0 mg/kg/injection, schedule: Q01DX001 (ip), vehicle: carboxymethylcellulose (CMC) 98 % of control

c1ccc(CCCSc2ccccc2)cc1
inactive: [7] 120 % of control | [1] 108 % of control | [8] 104 % of control | [2] 94 % of control | [3] 100 % of control

CN(CCCl)C(=O)Nc1ccc(Cl)cc1
inactive: [12] 94 % of control | [13] 94 % of control | [14] 90 % of control

O=C(Nc1ccc(CCO)cc1)Nc1cccc(F)c1
inactive: [4] 103 % of control | [5] 102 % of control | [6] 88 % of control

Cc1ccccc1NC(=O)Nc1ccc(S(N)(=O)=O)cc1
inactive: [4] 104 % of control | dose: 100.0 mg/kg/injection, schedule: Q04DX002 (ip), vehicle: Klucel (hydroxypropylcellulose) (HPC) 86 % of control | [5] 101 % of control | dose: 200.0 mg/kg/injection, schedule: Q04DX002 (ip), vehicle: Klucel (hydroxypropylcellulose) (HPC) 93 % of control | [6] 112 % of control | dose: 400.0 mg/kg/injection, schedule: Q04DX002 (ip), vehicle: Klucel (hydroxypropylcellulose) (HPC) 86 % of control

COC(=O)CCC(=O)c1ccc(Cl)cc1
inactive: dose: 100.0 mg/kg/injection, schedule: Q01DX009 (ip), vehicle: gum acacia 98 % of control | dose: 100.0 mg/kg/injection, schedule: Q04DX003 (ip), vehicle: gum acacia 100 % of control | dose: 200.0 mg/kg/injection, schedule: Q01DX009 (ip), vehicle: gum acacia 97 % of control | dose: 200.0 mg/kg/injection, schedule: Q04DX003 (ip), vehicle: gum acacia 96 % of control | dose: 400.0 mg/kg/injection, schedule: Q01DX009 (ip), vehicle: gum acacia 101 % of control | dose: 400.0 mg/kg/injection, schedule: Q04DX003 (ip), vehicle: gum acacia 102 % of control

From PubChem BioAssay AID248 (DTP/NCI, 2004)
